From patent US12187723B2 (BRISTOL-MYERS SQUIBB COMPANY, priority 2019, dated 2025) come the findings set out here.

In one experiment the target is T1, human TLR7 (Homo sapiens, UniProt Q9NYK1).
T1 construct: host or cells: HEK-Blue cells
T1 sequence (Q9NYK1 27-1049): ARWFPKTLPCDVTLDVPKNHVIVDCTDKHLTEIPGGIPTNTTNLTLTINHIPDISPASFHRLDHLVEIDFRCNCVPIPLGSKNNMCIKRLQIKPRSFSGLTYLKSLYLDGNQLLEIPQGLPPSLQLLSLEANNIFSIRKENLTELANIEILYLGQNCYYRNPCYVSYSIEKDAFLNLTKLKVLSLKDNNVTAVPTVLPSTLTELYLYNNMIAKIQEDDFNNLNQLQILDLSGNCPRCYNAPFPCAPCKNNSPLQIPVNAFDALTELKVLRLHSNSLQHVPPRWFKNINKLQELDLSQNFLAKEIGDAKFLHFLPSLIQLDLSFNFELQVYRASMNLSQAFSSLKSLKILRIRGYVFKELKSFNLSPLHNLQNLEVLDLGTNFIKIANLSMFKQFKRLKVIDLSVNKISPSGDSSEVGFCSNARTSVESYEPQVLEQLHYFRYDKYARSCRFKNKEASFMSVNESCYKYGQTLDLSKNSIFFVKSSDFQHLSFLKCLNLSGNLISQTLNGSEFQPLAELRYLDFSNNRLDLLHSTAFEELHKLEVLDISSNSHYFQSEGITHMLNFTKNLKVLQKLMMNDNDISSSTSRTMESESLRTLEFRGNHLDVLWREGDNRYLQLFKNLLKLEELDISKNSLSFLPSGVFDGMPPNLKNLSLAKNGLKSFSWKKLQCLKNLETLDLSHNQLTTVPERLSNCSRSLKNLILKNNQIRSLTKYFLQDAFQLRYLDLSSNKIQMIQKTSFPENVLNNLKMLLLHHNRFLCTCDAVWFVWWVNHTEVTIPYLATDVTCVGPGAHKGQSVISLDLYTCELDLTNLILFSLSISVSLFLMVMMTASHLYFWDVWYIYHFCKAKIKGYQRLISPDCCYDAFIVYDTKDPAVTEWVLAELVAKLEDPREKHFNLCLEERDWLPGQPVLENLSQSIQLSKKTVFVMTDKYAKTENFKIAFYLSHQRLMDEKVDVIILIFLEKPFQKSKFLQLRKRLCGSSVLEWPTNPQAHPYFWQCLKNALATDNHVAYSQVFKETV
The experiment can be described thus: TLR7 inhibition reporter assay (HEK-Blue SEAP). The format is cell-based. The note with it: HEK-Blue cells overexpressing human TLR7, gardiquimod 7.5 μM, 22 hour incubation. The method, boiled down:
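Cells (15000/well for TLR7, 20,000 for TLR8) were treated with compounds over 0.05 nM-50 μM final. After 22 h at 37° C, 5% CO2, SEAP was measured with HEK-Blue Detection reagent; percent inhibition was taken as reduction of agonist-plus-DMSO signal relative to a known inhibitor.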
On the technique in general: A reporter such as luciferase makes a cellular process visible.

The next experiment deals with T2, human TLR9 (Homo sapiens, UniProt Q9NR96).
T2 construct: host or cells: HEK-Blue cells
T2 sequence (Q9NR96 26-1032): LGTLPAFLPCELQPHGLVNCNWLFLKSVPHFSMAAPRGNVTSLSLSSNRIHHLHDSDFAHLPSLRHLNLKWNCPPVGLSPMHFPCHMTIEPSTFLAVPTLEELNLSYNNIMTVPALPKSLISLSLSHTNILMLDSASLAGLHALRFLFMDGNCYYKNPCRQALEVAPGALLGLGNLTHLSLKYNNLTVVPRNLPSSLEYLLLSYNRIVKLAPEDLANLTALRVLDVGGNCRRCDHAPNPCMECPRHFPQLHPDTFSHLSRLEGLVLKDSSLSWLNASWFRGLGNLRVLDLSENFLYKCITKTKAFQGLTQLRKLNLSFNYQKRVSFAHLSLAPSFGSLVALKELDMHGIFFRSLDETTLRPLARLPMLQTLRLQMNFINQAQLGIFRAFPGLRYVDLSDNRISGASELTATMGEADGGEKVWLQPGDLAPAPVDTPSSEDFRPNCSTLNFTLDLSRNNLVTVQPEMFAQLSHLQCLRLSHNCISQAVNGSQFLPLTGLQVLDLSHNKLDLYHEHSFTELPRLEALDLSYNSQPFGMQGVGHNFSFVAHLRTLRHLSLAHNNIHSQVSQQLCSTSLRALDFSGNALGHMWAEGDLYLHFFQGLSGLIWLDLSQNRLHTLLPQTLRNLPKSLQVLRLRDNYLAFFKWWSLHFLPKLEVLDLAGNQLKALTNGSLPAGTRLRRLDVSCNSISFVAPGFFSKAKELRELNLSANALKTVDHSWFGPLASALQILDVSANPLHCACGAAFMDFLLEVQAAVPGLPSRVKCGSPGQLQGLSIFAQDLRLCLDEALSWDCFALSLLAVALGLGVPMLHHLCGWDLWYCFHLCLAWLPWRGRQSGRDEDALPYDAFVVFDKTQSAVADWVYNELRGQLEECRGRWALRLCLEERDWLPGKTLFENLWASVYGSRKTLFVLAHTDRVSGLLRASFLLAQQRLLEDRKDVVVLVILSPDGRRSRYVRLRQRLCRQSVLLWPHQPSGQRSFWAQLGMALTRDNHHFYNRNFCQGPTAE
Put plainly: TLR9 inhibition reporter assay (HEK-Blue SEAP). The format is cell-based. The conditions noted are these: HEK-Blue cells overexpressing human TLR9, ODN2006 5 nM, 22 hour incubation. The method, boiled down: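 Human TLR7/8/9 HEK-Blue reporter lines; dose range 0.05 nM–50 μM; 30 min RT preincubation; stimulus gardiquimod 7.5 μM / R848 15.9 μM / ODN2006 5 nM respectively; 22 h, 37 °C; SEAP detected colorimetrically.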

What is called IC50 is the concentration needed to halve the response being measured. Low values mean inhibition by little substance, high ones a need for much substance. As to `COc1cc(-c2cc3[nH]c(=O)n(C4CCN(C5COC5)CC4)c3cc2C(C)C)cn2ncnc12` [Example 157, 6-isopropyl-5-(8-methoxy-[1,2,4]triazolo[1,5-a]pyridin-6-yl)-1-(1-(oxetan-3-yl)piperidin-4-yl)-1,3-dihydro-2H-benzo[d]imidazol-2-one], the results for the half-inhibitory concentration (IC50) against human TLR7 and at human TLR9 were 76.8 nM and over 50000 nM, respectively.

As to `COc1cc(-c2cc3[nH]c(=O)n([C@H]4CCCN(C5CCOCC5)C4)c3cc2C(C)C)cn2ncnc12` [Example 124, (S)-6-isopropyl-5-(8-methoxy-[1,2,4]triazolo[1,5-a]pyridin-6-yl)-1-(1-(tetrahydro-2H-pyran-4-yl)piperidin-3-yl)-1,3-dihydro-2H-benzo[d]imidazol-2-one], the half-inhibitory concentration (IC50) on human TLR7 was determined as 63.8 nM; against human TLR9, 20800 nM.

`CCc1cc2c(cc1-c1cc(OC)c3ncnn3c1)[nH]c(=O)n2[C@H]1CC[C@@H](NC2CCOCC2)CC1` [Example 166, 6-ethyl-5-(8-methoxy-[1,2,4]triazolo[1,5-a]pyridin-6-yl)-1-((1s,4s)-4-((tetrahydro-2H-pyran-4-yl)amino)cyclohexyl)-1,3-dihydro-2H-benzo[d]imidazol-2-one]: the values for the IC50 against human TLR7 and on human TLR9 were 1.9 nM and 14900 nM, respectively.
